Experimental data reported in patent US11014915B2, “Selective estrogen receptor degrader” (SUN PHARMA ADVANCED RESEARCH COMPANY LIMITED, priority 2019, dated 2021).

Legend:
[1] = Pharmacokinetic study in female SD rats, single oral dose; type: in vivo; conditions: rat, 50 mg/kg p.o.; for AUC(0-t) / Cmax / Tmax / half-life / AUC(0-inf): female, SD, plasma, po; for AUC(0-inf): read-out: AUCinf_obs
Source text: In drug discovery it is very important to have good oral bioavailability and pharmacokinetic (PK) profile of the compound in order to become a good drug candidate for oral administration. Many compounds having potent in vitro efficacy fail to show therapeutic efficacy in human body. The lack of therapeutic efficacy of these compounds is mainly due to their inappropriate pharmacokinetic properties, such as low bioavailability, short half-life, rapid metabolism, or rapid clearance resulting in a short duration of action. Therefore a good drug candidate should have not only good potency, but also a good pharmacokinetic profile. The pharmacokinetic profile of the compounds of Formula Ia and Ib were determined as per the procedure provided below.
PK profiles were evaluated in female SD rats (n=2) following a single oral dose administration. Rats were fasted for 12-13 hours prior to dosing and feed was provided 2 hours after oral treatments. Dose formulations of compounds were prepared in Tween 80 (0.4% v/v of the total volume of suspension) in 0.5% carboxymethyl cellulose (CMC). Treatments were given at 50 mg/kg, p.o. To evaluate the plasma concentration, 0.2 mL blood was drawn from the rats through the retro-orbital plexus at 0.25, 1, 4, 8, 24, 48 and 72 hour time points post-treatment in Eppendorf tubes containing sodium heparin as an anticoagulant (100 IU/mL), and centrifuged immediately at 8500 rpm for 7 min at 4° C. Plasma was separated and stored at −70° C., until analysis. The analysis of samples was performed as per the method given below:
Working Calibration Standard and Quality Control Standards Preparation:
Working calibration standards were prepared having 0.10, 0.20, 2.00, 4.00, 8.00, 12.00, 16.00, and 20.00 μg/mL concentrations. Quality control standards were prepared at concentrations of […].
Preparation of Working Internal Standards (WIS):
Accurately weighed 5 mg of Carbamazepine was transferred into a 100 mL volumetric flask, dissolved and diluted up to the mark with diluent (0.1% formic acid in water:acetonitrile 30:70 v/v). A WIS of 5 μg/mL was prepared from the above solution.
5 μL of working standards and quality controls were spiked into 95 μL of blank plasma. 25 μl from the above spiked standards and quality controls were aliquoted into microcentrifuge tubes. 25 μL of study samples were also aliquoted into a micro centrifuge tube. 5 μL of WIS was added in zero standards to linearity and study samples except blank. The samples were further vortexed for 10-15 seconds. 150 μL of Milli Q water was added to all prepared samples and vortexed for 10-15 seconds. Samples were loaded on a preconditioned cartridge (preconditioning was done with 1 mL methanol followed by 1 mL Milli Q water). Cartridges were washed with 2×1 mL of Milli Q water. Elution was done with a 1 mL elution solution {acetonitrile: 0.1% formic acid solution (70:30)} in HPLC vials.
Chromatographic separation was achieved on Chiral pack ID (250*4.6 mm, 5μ) with a flow rate of 1.25 mL/min with splitter and injection volume of 20 μL. The sample cooler was maintained at 10° C. The column oven temperature was set to 30° C. The mobile phase consisted of:
Mobile phase A: 1.47 g of ammonium bicarbonate into 1 L of water, 1 ml DEA, pH 9.2±0.1
Mobile phase B: methanol,
wherein mobile phase A was mixed with mobile phase B in the ratio of 30:70 v/v, respectively. The retention time of the compound of Formula Ia, compound of Formula Ib and the internal standard were about 8.7, 7.6 and 4.2 min, respectively. The overall chromatographic run time was 16 minutes.
Detection was performed by tandem mass spectrometry (TSQ Quantum, Discovery MAX, Thermo Electron Corporation) and peak areas were integrated using LCquan software version 2.9 QF1. […]

[2] = molecular target: T1, ER-α in MCF-7 cells harboring ER wild type (Homo sapiens, UniProt P03372); experiment: ER-α degradation (SERD) assay, MCF-7 wild type; type: cell-based; conditions: for % of ER-α remaining at 1 nM / DC50: MCF-7 Wt, 4 days; for % of ER-α remaining at 1 nM: western blot, vehicle control as 100%; for DC50: read-out: ER-α degradation assay Wt IC50
T1 construct: evaluated in MCF-7 cells harboring ER wild type; endogenous in cells; host or cells: MCF-7
T1 sequence (P03372 1-595): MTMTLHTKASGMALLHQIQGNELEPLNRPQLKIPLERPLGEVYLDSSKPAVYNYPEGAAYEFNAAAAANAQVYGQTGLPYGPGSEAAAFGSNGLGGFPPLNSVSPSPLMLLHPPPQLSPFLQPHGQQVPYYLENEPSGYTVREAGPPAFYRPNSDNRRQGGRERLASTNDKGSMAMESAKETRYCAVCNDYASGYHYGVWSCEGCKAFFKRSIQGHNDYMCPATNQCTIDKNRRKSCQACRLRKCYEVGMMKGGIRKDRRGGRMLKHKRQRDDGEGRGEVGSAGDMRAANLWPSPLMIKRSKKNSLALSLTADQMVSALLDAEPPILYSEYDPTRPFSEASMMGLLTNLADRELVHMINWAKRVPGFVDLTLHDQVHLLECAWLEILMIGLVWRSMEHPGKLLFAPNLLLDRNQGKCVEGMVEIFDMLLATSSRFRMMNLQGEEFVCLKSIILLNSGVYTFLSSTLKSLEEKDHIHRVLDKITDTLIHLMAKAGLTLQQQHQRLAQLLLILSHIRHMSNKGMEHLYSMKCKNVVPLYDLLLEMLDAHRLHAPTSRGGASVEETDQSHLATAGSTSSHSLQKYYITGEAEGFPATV
Protocol: Selective Estrogen Receptor Degradation (SERD) Assay:
The SERD activity for the test compounds was evaluated in MCF-7 cells harboring ER wild type, and MCF-7 cells harboring mutant ER (WT/D538G and WT/Y537S). Briefly, cells were plated in phenol red free RPMI1640 medium supplemented with 5% charcoal stripped fetal bovine serum. The seeding density was 40000 cells/well for MCF-7 WT and MCF-7 D538G and 50000 cells/well MCF-7 Y537S in a 48-well plate. Following overnight incubation, the cells were treated with varying concentrations of test compounds (final concentration: 1000 nM to 0.01 nM, 0.1% DMSO) for 4 days. The cells were lysed using PBS supplemented with 1 mM EDTA, 0.5% Triton X-100, 5 mM NaF, 6 M urea, and 1× Protease inhibitor cocktail. The lysate was analyzed for ER alpha protein using western blot. For the western blot, the cell lysate (12.5-40 μg total protein) was resolved on a 10% SDS PAGE and transferred onto a PVDF membrane. The blots were blocked using 5% skim milk powder in 0.1% PBS-T for 1 hour at room temperature, followed by co-incubation with rabbit anti-human β-actin antibody and rabbit anti-human ERα antibody for 2 hours at room temperature. The blots were subsequently probed with anti-rabbit IgG-HRP conjugate as secondary antibody for 1 hour at room temperature. The blots were developed by using West Pico Super Signal Chemiluminescence substrate and the bands were processed for densitometry analysis using Image Lab software (BioRad version 6.0.0). ERα band intensity was normalized to that housekeeping protein for respective samples. The % ER remaining was calculated by normalizing against the vehicle control (as 100%).

SMILES | AUC(0-t) [1] [ng·h/mL] | Cmax [1] [ng/mL] | Tmax [1] [h] | half-life [1] [h] | AUC(0-inf) [1] [ng·h/mL] | AUClast of Formula Ia relative to Formula Ib [1] | Cmax of Formula Ia relative to Formula Ib [1] | % of ER-α remaining at 1 nM [2] [%] | DC50 [2] [nM] | Potency of Formula Ia relative to Formula Ib in ER-α degradation ([2]; wild type)
CC1=C(c2cc(F)cc(F)c2)[C@H](c2ccc(/C=C/CN3CC(CF)C3)cc2)Oc2cc(O)ccc21 [Formula Ia, (2S)-3-(3,5-difluorophenyl)-2-[4-[(E)-3-[3-(fluoromethyl)azetidin-1-yl]prop-1-enyl]phenyl]-4-methyl-2H-chromen-7-ol] | 7580 | 343 | 4 | 26 | 9800 | about 4.2 fold | about 2.9 fold | 16.3 | 0.3 | about 34 times
CC1=C(c2cc(F)cc(F)c2)[C@@H](c2ccc(/C=C/CN3CC(CF)C3)cc2)Oc2cc(O)ccc21 [Formula Ib, (2R)-3-(3,5-difluorophenyl)-2-[4-[(E)-3-[3-(fluoromethyl)azetidin-1-yl]prop-1-enyl]phenyl]-4-methyl-2H-chromen-7-ol] | 1800 | 119 | 4 | 10 | 2360 | – | – | 81.5 | 10.2 | –
